Laboratory results as given in US20050009840A1 (SUGEN, INC., priority 2003, published 2005).
Where “and” joins values, the source holds several entries; their conditions need not be identical. Identical values can stand only once.

Molecular target: T1, Met kinase domain (GST fusion protein) (Homo sapiens, UniProt P08581)
T1 construct: Purified GST fusion protein containing the Met kinase domain
Assay: Met transphosphorylation assay (ELISA, poly(glu-tyr) substrate);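 also: Cell-free ELISA with plate-bound poly(Glu:Tyr 4:1) phosphorylated by GST-fused Met kinase domain plus ATP and Mn2+, phosphotyrosine detected by anti-phosphotyrosine antibody with HRP and ABTS read-out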
Format: biochemical
Conditions: Met IC50

T1 sequence (P08581 1078-1345 limits assumed): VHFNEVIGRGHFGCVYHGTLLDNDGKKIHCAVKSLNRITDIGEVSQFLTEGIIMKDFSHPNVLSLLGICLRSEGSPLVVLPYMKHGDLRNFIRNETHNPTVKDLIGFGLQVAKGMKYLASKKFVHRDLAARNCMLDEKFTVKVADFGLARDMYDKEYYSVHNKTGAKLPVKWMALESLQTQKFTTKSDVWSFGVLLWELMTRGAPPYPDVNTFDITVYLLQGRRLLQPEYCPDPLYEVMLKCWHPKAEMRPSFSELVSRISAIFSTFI

Compound N#Cc1ccccc1COc1cc(-c2ccccc2)cnc1N [Example I-97, 2-(2-Amino-5-phenyl-pyridin-3-yloxymethyl)-benzonitrile] has an IC50 of 12.2 µM.

Same assay, conditions: read-out: Met IC50

Nc1ncc(-c2ccccc2)cc1OCc1ccc(Cl)c(Cl)c1 [Example I-96, 3-(3,4-Dichloro-benzyloxy)-5-phenyl-pyridin-2-ylamine] and COc1ccc(COc2cc(-c3ccccc3)cnc2N)cc1F [Example I-104, 3-(3-Fluoro-4-methoxy-benzyloxy)-5-phenyl-pyridin-2-ylamine] are within 1.5-fold of each other in IC50: 16.2 µM for the first, 15 µM for the second.

Compared with Cc1ccc(F)c(COc2cc(-c3ccccc3)cnc2N)c1Cl [Example I-98, 3-(2-Chloro-6-fluoro-3-methyl-benzyloxy)-5-phenyl-pyridin-2-ylamine], Cc1ccc(F)c(COc2cc(-c3ccccc3)cnc2N)c1F [Example I-101, 3-(2,6-Difluoro-3-methyl-benzyloxy)-5-phenyl-pyridin-2-ylamine] is 1.6-fold higher in IC50: 7.6 µM for the first, 12 µM for the second. The first is the more potent here.

Going from Nc1ncc(-c2ccccc2)cc1OCc1c(F)ccc(F)c1F [Example I-99, 5-Phenyl-3-(2,3,6-trifluoro-benzyloxy)-pyridin-2-ylamine] to Nc1ncc(-c2ccccc2)cc1OCc1c(F)ccc(Cl)c1F [Example I-102, 3-(3-Chloro-2,6-difluoro-benzyloxy)-5-phenyl-pyridin-2-ylamine], the IC50 rises from 3.9 µM to 9.6 µM (2.5-fold). The first is the more potent here.

Nc1ncc(-c2ccccc2)cc1OCc1c(F)cccc1F [Example I-100, 3-(2,6-Difluoro-benzyloxy)-5-phenyl-pyridin-2-ylamine] and Nc1ncc(-c2ccccc2)cc1OCc1c(F)cccc1Cl [Example I-103, 3-(2-Chloro-8-fluoro-benzyloxy)-5-phenyl-pyridin-2-ylamine] are within 1.5-fold of each other in IC50: 9.3 µM for the first, 7.91 µM for the second.

CS(=O)(=O)Nc1cccc(COc2cc(-c3ccccc3)cnc2N)c1 [Example I-105, N-[3-(2-Amino-5-phenyl-pyridin-3-yloxymethyl)-phenyl]-methanesulfonamide] and CS(=O)(=O)Nc1ccc(-c2cnc(N)c(OCc3ccccc3C(=O)O)c2)cc1 [Example I-137, 2-[2-Amino-5-(4-methanesulfonylamino-phenyl)-pyridin-3-yloxymethyl]-benzoic acid] cannot be ordered by IC50: greater than 20 µM for the first, greater than 20 µM for the second.

Going from Nc1ncc(-c2ccc(OCCN3CCOCC3)cc2)cc1OCc1cccc([N+](=O)[O-])c1 [Example I-106, 5-[4-(2-morpholin-4-yl-ethoxy)-phenyl]-3-(3-nitro-benzyloxy)-pyridin-2-ylamine] to Nc1ncc(-c2ccc(OCCN3CCOCC3)cc2)cc1OCc1cccc2ccccc12 [Example I-107, 5-[4-(2-Morpholin-4-yl-ethoxy)-phenyl]-3-(naphthalen-1-ylmethoxy)-pyridin-2-ylamine], the IC50 falls from 12.6 µM to 7.7 µM (1.6-fold). The second is the more potent here.

Compared with Nc1ncc(-c2ccc(OCCN3CCOCC3)cc2)cc1OCc1c(F)ccc(F)c1Cl [Example I-108, 3-(2-Chloro-3,6-difluoro-benzyloxy)-5-[4-(2-morpholin-4-yl-ethoxy)-phenyl]-pyridin-2-ylamine], Nc1ncc(-c2ccc(OCCN3CCOCC3)cc2)cc1OCc1csc2ccc(Cl)cc12 [Example I-110, 3-(5-Chloro-benzo[b]thiophen-3-ylmethoxy)-5-[4-(2-morpholin-4-yl-ethoxy)-phenyl]-pyridin-2-ylamine] is 11-fold higher in IC50: 0.21 µM for the first, 2.4 µM for the second. The first is the more potent here.

CC(C)c1ccc(NC(=O)C(Oc2cc(-c3ccc(OCCN4CCOCC4)cc3)cnc2N)c2ccccc2)cc1 (centres unmarked) [Example I-109, 2-{2-Amino-5-[4-(2-morpholin-4-yl-ethoxy)-phenyl]-pyridin-3-yloxy}-N-(4-isopropyl-phenyl)-2-phenyl-acetamide] and CC(C)CNC(=O)c1ccccc1COc1cc(-c2ccc(NS(C)(=O)=O)cc2)cnc1N [Example I-140, 2-[2-Amino-5-(4-methanesulfonylamino-phenyl)-pyridin-3-yloxymethyl]-N-isobutyl-benzamide] cannot be ordered by IC50: greater than 20 µM for the first, greater than 20 µM for the second.

Nc1ncc(-c2ccc(C(=O)N3CCC[C@@H]3CN3CCCC3)cc2)cc1OCc1ccc(F)cc1C(F)(F)F [Example I-111, {4-[6-amino-5-(4-fluoro-2-trifluoromethyl-benzyloxy)-pyridin-3-yl]-phenyl)[(2R)-2-pyrrolidin-1-ylmethyl-pyrrolidin-1-yl]-methanone] and Nc1ncc(-c2ccc(C(=O)N3CCC[C@@H]3CN3CCCC3)cc2)cc1OCc1cc(F)ccc1C(F)(F)F [Example I-113, {4-(6-Amino-5-(5-fluoro-2-trifluoromethyl-benzyloxy)pyridin-3-yl]-phenyl}-[(2R)-2-pyrrolidin-1-ylmethyl-pyrrolidin-1-yl]-methanone] are within 1.5-fold of each other in IC50: 1.51 µM for the first, 1.27 µM for the second.

Going from Nc1ncc(-c2ccc(C(=O)N3CCC[C@@H]3CN3CCCC3)cc2)cc1OCc1c(F)cccc1C(F)(F)F [Example I-112, {4-[6-Amino-5-(2-fluoro-2-trifluoromethyl-benzyloxy)-pyridin-3-yl]-phenyl}-[(2R)-2-pyrrolidin-1-ylmethyl-pyrrolidin-1-yl]-methanone] to Nc1ncc(-c2ccc(C(=O)N3CCC[C@@H]3CN3CCCC3)cc2)cc1OCc1cccc(F)c1C(F)(F)F [Example I-116, {4-(6-Amino-5-(3-fluoro-2-trifluoromethyl-benzyloxy)-pyridin-3-yl]-phenyl}-[(2R)-2-pyrrolidin-1-ylmethyl-pyrrolidin-1-yl]-methanone], the IC50 falls from 0.15 µM to 0.025 µM (6-fold). The second is the more potent here.

Going from CC(Oc1cc(-c2ccc(C(=O)N3CCC[C@@H]3CN3CCCC3)cc2)cnc1N)c1ccccc1C(F)(F)F (stereo partly drawn) [Example I-114, (4-{6-Amino-5-[1-(2-trifluoromethyl-phenyl)-ethoxy]-pyridin-3-yl}-phenyl)-[(2R)-2-pyrrolidin-1-ylmethyl-pyrrolidin-1-yl]-methanone] to Nc1ncc(-c2ccc(C(=O)N3CCC[C@@H]3CN3CCCC3)cc2)cc1OCc1ccccc1Br [Example I-115, {4-[6-Amino-5-(2-bromo-benzyloxy)-pyridin-3-yl]-phenyl}-[(2R)-2-pyrrolidin-1-ylmethyl-pyrrolidin-1-yl]-methanone], the IC50 rises from 0.33 µM to 1.75 µM (5.3-fold).

Nc1ncc(-c2ccc(O)cc2)cc1OCc1c(F)cccc1F [Example I-118, 4-[6-Amino-5-(2,6-difluoro-benzyloxy)-pyridin-3-yl]-phenyl] and Nc1ncc(-c2ccc(O)cc2)cc1OCc1c(F)cccc1Cl [Example I-128, 4-[6-Amino-5-(2-chloro-6-fluoro-benzyloxy)-pyridin-3-yl]-phenol] are within 1.5-fold of each other in IC50: 3.79 µM for the first, 3.99 µM for the second.

First: Nc1ncc(-c2cccc3[nH]ccc23)cc1OCc1c(F)cccc1F [Example I-119, 3-(2,6-Difluoro-benzyloxy)-5-(1H-indol-4-yl)-pyridin-2-ylamine]
Second: Nc1ncc(-c2ccc(OCC(=O)O)cc2)cc1OCc1c(F)cccc1F [Example I-125, {4-[6-Amino-5-(2,6-difluoro-benzyloxy)-pyridin-3-yl]-phenoxy}-acetic acid]
The IC50 of the first is 2.5-fold lower: 5.8 µM for the first, 14.7 µM for the second.

Nc1ncc(-c2ccc(C(=O)N3CCC[C@@H]3CN3CCCC3)cc2)cc1OCc1c(F)cccc1F [Example I-122] and Nc1ncc(-c2ccc(C(=O)N3CCC[C@H]3CN3CCCC3)cc2)cc1OCc1c(F)cccc1F [Example I-123, {4-[6-Amino-5-(2,6-difluoro-benzyloxy)-pyridin-3-yl]-phenyl}-[(2S)-2-pyrrolidin-1-ylmethyl-pyrrolidin-1-yl]-methanone] are within 1.5-fold of each other in IC50: 1.21 µM for the first, 1.36 µM for the second.

Compared with Nc1ncc(-c2ccc(OCC(=O)N3CCC[C@@H]3CN3CCCC3)cc2)cc1OCc1c(F)cccc1F [Example I-126, 2-{4-[6-Amino-5-(2,6-difluoro-benzyloxy)-pyridin-3-yl]-phenoxy}-1-[(2R)-2-pyrrolidin-1-ylmethyl-pyrrolidin-1-yl]-ethanone], Nc1ncc(-c2ccc(OCC(=O)N3CCC[C@H]3CN3CCCC3)cc2)cc1OCc1c(F)cccc1F [Example I-127, 2-{4-[6-Amino-5-(2,6-difluoro-benzyloxy)-pyridin-3-yl]-phenoxy}-1-[(2S)-2-pyrrolidin-1-ylmethyl-pyrrolidin-1-yl]-ethanone] is 1.5-fold higher in IC50: 3.58 µM for the first, 5.43 µM for the second.

Nc1ncc(-c2ccc(O)cc2)cc1OCc1ccc(F)cc1Cl [Example I-129, 4-[6-Amino-5-(2-chloro-4-fluoro-benzyloxy)-pyridin-3-yl]-phenol] and Nc1ncc(-c2ccc(O)cc2)cc1OCc1ccccc1Cl [Example I-133, 4-[6-Amino-5-(2-chloro-benzyloxy)-pyridin-3-yl]-phenol] are within 1.5-fold of each other in IC50: 19 µM for the first, 13.8 µM for the second.

Compared with N#Cc1ccccc1COc1cc(-c2ccc(O)cc2)cnc1N [Example I-131, 2-[2-Amino-5-(4-hydroxy-phenyl)-pyridin-3-yloxymethyl]-benzonitrile], CS(=O)(=O)Nc1ccc(-c2cnc(N)c(OCc3ccccc3C#N)c2)cc1 [Example I-135, N-{4-[6-Amino-5-(2-cyano-benzyloxy)-pyridin-3-yl]-phenyl}-methanesulfonamide] is 4.5-fold lower in IC50: 19 µM for the first, 4.18 µM for the second.

Nc1ncc(-c2ccc(O)cc2)cc1OCc1ccccc1C(F)(F)F [Example I-132, 4-[6-Amino-5-(2-trifluoromethyl-benzyloxy)-pyridin-3-yl]-phenol] and CC(C)(C)c1ccc(COc2cc(-c3ccc(O)cc3)cnc2N)cc1 [Example I-134, 4 [6-Amino-5-(4-teert-butyl-benzyloxy)-pyridin-3-yl]-phenol] are within 1.5-fold of each other in IC50: 3.67 µM for the first, 4 µM for the second.

CS(=O)(=O)Nc1ccc(-c2cnc(N)c(OCc3ccccc3C(N)=O)c2)cc1 [Example I-136, 2-[2-Amino-5-(4-methanesulfonylamino-phenyl)-pyridin-3-yloxymethyl]-benzamide] and CS(=O)(=O)Nc1ccc(-c2cnc(N)c(OCc3ccccc3C(=O)NCCO)c2)cc1 [Example I-139, 2-[2-Amino-5-(4-methanesulfonylamino-phenyl)-pyridin-3-yloxymethyl]-N-(2-hydroxy-ethyl)-benzamide] cannot be ordered by IC50: greater than 20 µM for the first, greater than 20 µM for the second.

Work on CN1CCN(C(=O)c2ccccc2COc2cc(-c3ccc(NS(C)(=O)=O)cc3)cnc2N)CC1 [Example I-138, N-(4-{6-Amino-5-[2-(4-methyl-piperazine-1-carbonyl)-benzyloxy]-pyridin-3-yl}-phenyl)-methanesulfonamide] yielded an IC50 greater than 20 µM.

In the case of Nc1ncc(-c2ccc(O)cc2)cc1OCc1ccc(Cl)cc1Cl [Example I-130, 4-[6-Amino-5-(2,4-dichloro-benzyloxy)-pyridin-3-yl]-phenol], the IC50 is reported as 9 µM and > 20 µM.
